Patent US20240025858A1, “CANNABINOID DERIVATIVES AS […] ACTIVE COMPOUNDS AND METHOD OF PREPARATION THEREOF” (GW Research Limited, priority 2020, published 2024)

Key:
[1] = tested on: mouse model of generalised seizure; experiment: MEST (maximal electroshock seizure threshold) test in the mouse; details: for % change from vehicle: change in CC50
Method: The efficacy of the cannabinoid derivative of 1 was tested in a mouse model of generalised seizure, the maximal electroshock seizure threshold (MEST) test.
The protocol according to Example 2 was followed, with the current lowered or raised in intervals of 5 mA instead of log scale intervals.

[2] = tested on: mouse model of generalised seizure; experiment: mini-MEST (maximal electroshock seizure threshold test, minimal sample sizes) in the mouse; details: for change in vivo at 50 mg/kg / change in vivo at 5 mg/kg: Mus musculus, ip, change in CC50; for change in vivo at 50 mg/kg: 0.5 h, read-out: % change from vehicle, 50 mg/kg i.p., 30 min post dose; for change in vivo at 5 mg/kg: 0.25 h, read-out: % change from vehicle, 5 mg/kg i.p., 15 min post dose
Method: In the MEST test the ability of a drug to alter the seizure threshold current required to induce hind limb tonic extensor convulsions is measured according to an “up and down” method of shock titration (Kimball et al., 1957).
The ability of a test compound to alter the stimulus intensity, expressed as current (mA), required to induce the presence of tonic hind limb extensor convulsions, is assessed in the MEST.
Naïve mice were acclimatised to the procedure room in their home cages for up to 7 days, with food and water available ad libitum.
All animals were weighed at the beginning of the study and randomly assigned to treatment groups based on a mean distribution of body weight across groups.
The first animal within a treatment group was given a shock at the expected or estimated CC50 current. For subsequent animals, the current was lowered or raised depending on the convulsions outcome from the preceding animal in log scale intervals.
Data generated from each treatment group were used to calculate the CC50 ±SEM values for the treatment group.
The test compounds used were 1, 2, 3, 4 and 5. Test compounds were administered at 5-50 mg/kg (i.p.) in a 1:2:17 ethanol:solutol:saline formulation.
The data for each treatment group were recorded as the number of +'s and 0's at each current level employed and this information is then used to calculate the CC50 value (current required for 50% of the animals to show seizure behaviour) ±standard error.
Test compound effects were also calculated as percentage change in CC50 from the vehicle control group.
The test compounds used were 12, 42 and 43. Test compounds were administered at 5-50 mg/kg (i.p.) in a 1:2:17 ethanol:solutol:saline formulation.
The test compounds used were 6, 13, 22, 26, 28, 33, 38 and 46. Test compounds were administered at 5-50 mg/kg (i.p.) in a 1:2:17 ethanol:solutol:saline formulation.
The test compound used was 36. Test compound was administered at 5 and 50 mg/kg (i.p.) in a 1:2:17 ethanol:solutol:saline formulation.

[3] = 5 mg/kg i.p., test 15 min post dose
[4] = 50 mg/kg i.p., test 30 min post dose

Row | Structure (SMILES) | CC50 +/− SEM [2, 4] [mA] | change in vivo at 50 mg/kg [2] [%] | CC50 +/− SEM [2, 3] [mA] | change in vivo at 5 mg/kg [2] [%] | also measured
1 | C=C(C)[C@@H]1CCC(C)=C[C@H]1c1c(O)cc(-c2cnn(CC(C)(C)O)c2)cc1O [Compound 1, (1′R,2′R)-4-(1-(2-Hydroxy-2-methylpropyl)-1H-pyrazol-4-yl)-5′-methyl-2′-(prop-1-en-2-yl)-1′,2′,3′,4′-tetrahydro-[1,1′-biphenyl]-2,6-diol] | 119.5 | 388 | – | – | % change from vehicle ([1]; 1 mg/kg i.p., 15 min post dose): 10%; CC50 +/− SEM ([1]; 1 mg/kg i.p., test 15 min post dose): 28.5 mA; % change from vehicle ([1]; 5 mg/kg i.p., 15 min post dose): 21%; CC50 +/− SEM [1, 3]: 31.5 mA; % change from vehicle ([1]; 50 mg/kg i.p., 30 min post dose): 213%; CC50 +/− SEM [1, 4]: 81.5 mA
2 | C=C(C)[C@@H]1CCC(C)=C[C@H]1c1c(O)cc(-c2cnn(CCO)c2)cc1O [Compound 2, (1′R,2′R)-4-(1-(2-Hydroxyethyl)-1H-pyrazol-4-yl)-5′-methyl-2′-(prop-1-en-2-yl)-1′,2′,3′,4′-tetrahydro-[1,1′-biphenyl]-2,6-diol] | <35.0 | < 40 | 32.5 | 30 | –
3 | C=C(C)[C@@H]1CCC(C)=C[C@H]1c1c(O)cc(-c2cn(C)nc2C)cc1O [Compound 3, (1′R,2′R)-4-(1,3-Dimethyl-1H-pyrazol-4-yl)-5′-methyl-2′-(prop-1-en-2-yl)-1′,2′,3′,4′-tetrahydro-[1,1′-biphenyl]-2,6-diol] | 62.5 | 150 | 27.5 | 10 | –
4 | C=C(C)[C@@H]1CCC(C)=C[C@H]1c1c(O)cc(-c2cn(C)nn2)cc1O [Compound 4, (1′R,2′R)-5′-Methyl-4-(1-methyl-1H-1,2,3-triazol-4-yl)-2′-(prop-1-en-2-yl)-1′,2′,3′,4′-tetrahydro-[1, 1′-biphenyl]-2,6-diol] | 70.5 | 213 | 28.3 | 26 | –
5 | C=C(C)[C@@H]1CCC(C)=C[C@H]1c1c(O)cc(-c2cnn(CCO)c2C)cc1O [Compound 5, (1′R,2′R)-4-(1-(2-Hydroxyethyl)-5-methyl-1H-pyrazol-4-yl)-5′-methyl-2′-(prop-1-en-2-yl)-1′,2′,3′,4′-tetrahydro-[1,1′-biphenyl]-2,6-diol] | 60.5 | 169 | – | – | –
6 | C=C(C)[C@@H]1CCC(C)=C[C@H]1c1c(O)cc(-c2cnn(CCN(C)C)c2)cc1O [Compound 6, (1′R,2′R)-4-(1-(2-(Dimethylamino)ethyl)-1H-pyrazol-4-yl)-5′-methyl-2′-(prop-1-en-2-yl)-1′,2′,3′,4′-tetrahydro-[1,1′-biphenyl]-2,6-diol] | <43 | < 76 | – | – | –
7 | C=C(C)[C@@H]1CCC(C)=C[C@H]1c1c(O)cc(-c2ccc(OC)nc2)cc1O [Compound 12, (1′R,2′R)-4-(6-Methoxypyridin-3-yl)-5′-methyl-2′-(prop-1-en-2-yl)-1′,2′,3′,4′-tetrahydro-[1,1′-biphenyl]-2,6-diol] | >131 | > 394 | 25.0 | -6 | convulsions observed ([2]; 50 mg/kg, CC50 not reached): no animals had any convulsions
8 | C=C(C)[C@@H]1CCC(C)=C[C@H]1c1c(O)cc(-c2cnn(CCN3CCOCC3)c2)cc1O [Compound 13, (1′R,2′R)-5′-Methyl-4-(1-(2-morpholinoethyl)-1H-pyrazol-4-yl)-2′-(prop-1-en-2-yl)-1′,2′,3′,4′-tetrahydro-[1,1′-biphenyl]-2,6-diol] | 37.2 | 58 | 25.0 | 6 | –
9 | C=C(C)[C@@H]1CCC(C)=C[C@H]1c1c(O)cc(-c2cnn(CC(C)O)c2)cc1O (stereo partly drawn) [Compound 22, (1′R,2′R)-4-(1-(2-Hydroxypropyl)-1H-pyrazol-4-yl)-5′-methyl-2′-(prop-1-en-2-yl)-1′,2′,3′,4′-tetrahydro-[1,1′-biphenyl]-2,6-diol] | 66.0 | 149 | 33.0 | 25 | –
10 | C=C(C)[C@@H]1CCC(C)=C[C@H]1c1c(O)cc(-n2cnc(C)n2)cc1O [Compound 26, (1′R,2′R)-5′-Methyl-4-(3-methyl-1H-1,2,4-triazol-1-yl)-2′-(prop-1-en-2-yl)-1′,2′,3′,4′-tetrahydro-[1,1′-biphenyl]-2,6-diol] | 75.0 | 233 | – | – | –
11 | C=C(C)[C@@H]1CCC(C)=C[C@H]1c1c(O)cc(-c2cn(C)cn2)cc1O [Compound 28, (1′R,2′R)-5′-Methyl-4-(1-methyl-1H-imidazol-4-yl)-2′-(prop-1-en-2-yl)-1′,2′,3′,4′-tetrahydro-[1,1′-biphenyl]-2,6-diol] | 35.5 | 58 | 25.0 | 11 | –
12 | C=C(C)[C@@H]1CCC(C)=C[C@H]1c1c(O)cc(-c2ncn(C)n2)cc1O [Compound 33, (1′R,2′R)-5′-Methyl-4-(1-methyl-1H-1,2,4-triazol-3-yl)-2′-(prop-1-en-2-yl)-1′,2′,3′,4′-tetrahydro-[1, 1′-biphenyl]-2,6-diol] | 53.5 | 138 | – | – | –
13 | CC1=C[C@@H](c2c(O)cc(-c3cnn(C)c3)cc2O)[C@H](C(C)C)CC1 [Compound 36, (1′S,2′S)-2′-Isopropyl-5′-methyl-4-(1-methyl-1H-pyrazol-4-yl)-1′,2′,3′,4′-tetrahydro-[1,1′-biphenyl]-2,6-diol] | 70.5 | 176 | 29.0 | 14 | CC50 value compared to vehicle ([2]; 5 and 50 mg/kg i.p., between 15 and 30 minutes before the test): statistically significant
14 | C=C(C)[C@@H]1CCC(C)=C[C@H]1c1c(O)cc(-c2cnn(C3COC3)c2)cc1O [Compound 38, (1′R,2′R)-5′-Methyl-4-(1-(oxetan-3-yl)-1H-pyrazol-4-yl)-2′-(prop-1-en-2-yl)-11,2′,3′,4′-tetrahydro-[1, 1′-biphenyl]-2,6-diol] | 79.5 | 200 | – | – | –
15 | C=C(C)[C@@H]1CCC(C)=C[C@H]1c1c(O)cc(-c2ccn(C)c(=O)c2)cc1O [Compound 42, 4-((1′R,2′R)-2,6-dihydroxy-5′-methyl-2′-(prop-1-en-2-yl)-1′,2′,3′,4′-tetrahydro-[1,1′-biphenyl]-4-yl)-1-methylpyridin-2(1H)-one] | 67.5 | 132 | – | – | –
16 | C=C(C)[C@@H]1CCC(C)=C[C@H]1c1c(O)cc(-c2cccnc2OC)cc1O [Compound 43, (1′R,2′R)-4-(2-methoxypyridin-3-yl)-5′-methyl-2′-(prop-1-en-2-yl)-1′,2′,3′,4′-tetrahydro-[1,1′-biphenyl]-2,6-diol] | 58.2 | 96 | – | – | –
17 | C=C(C)[C@@H]1CCC(C)=C[C@H]1c1c(O)cc(N(C)c2cccnc2)cc1O [Compound 46, (1′R,2′R)-5′-Methyl-4-(methyl(pyridin-3-yl)amino)-2′-(prop-1-en-2-yl)-1′,2′,3′,4′-tetrahydro-[1, 1′-biphenyl]-2,6-diol] | 61.5 | 132 | – | – | –
18 | CN1C(=O)CN=C(c2ccccc2)c2cc(Cl)ccc21 [Diazepam, diazepam, reference compound] | – | – | – | – | % change from vehicle ([1]; diazepam 2.5 mg/kg i.p., 30 min post dose): 224%
